Reference: PMC11274943, “Discovery of Benzisothiazolone Derivatives as Bifunctional Inhibitors of HIV-1 Reverse Transcriptase DNA Polymerase and Ribonuclease H Activities” (Biomolecules, 2024)

Assays:
[1] = target: T1, WT HIV-1 RT DNA-dependent DNA polymerase activity (Human immunodeficiency virus type 1 group M subtype B, UniProt P04585); test: biochemical; assay type: biochemical; conditions: for Polymerase Activity IC50 (DNA Polymerase): WT RT, mean ± SD, at least three independent experiments
T1 construct: made in house
Protocol: (§1) WT (wild-type) RT, and RTs harboring the NNRTI-resistant mutations K101E, K103N, Y181C, Y188C, G190A and P236L, were overexpressed and purified to homogeneity as described previously. The RT concentration was determined spectrophotometrically at 280 nm using an absorbance coefficient of 260,450 M^−1·cm^−1. The 7-hydroxy tropolone derivative 19,616 (2,7-dihydroxy 2,4,6-cyclo-heptatrien-1-one) was purchased from Molecular Diversity Preservation International (Basel, Switzerland). […] The benzisothiazolone derivatives were procured from MolPort (New York, NY, USA) or Enamine (Kyiv, Ukraine). The DNA and RNA oligonucleotides were synthesized and purified by Integrated DNA Technologies (Coralville, IA, USA). All other reagents were of the highest quality available and were used without further purification.
DDDP assays were also performed using a QuantiFluor ONE based spectrophotometric assay to detect double-stranded DNA synthesized by recombinant HIV-1 RT [14]. The reaction contained 40 nM of a template/primer comprising a 200 nt DNA template (5′-[…] […]-[…]-[…] […] […]-3′) annealed to an 18-nucleotide DNA primer (5′-[…]-3′), and a mix of 50 mM Tris-HCl pH 7.8, 50 mM NaCl, 10 mM MgCl2 and 50 µM dNTP. The reactions were stopped after 45 min by adding the detection reagent containing 1 × Quant-Fluor One (Promega) and 12.5 mM ethylenediaminetet-raacetic acid; the samples were transferred to a 96-well black plate, and fluorescence was measured at excitation/emission (490/535 nm).

[2] = target: T2, WT HIV-1 RT RNase H activity (Human immunodeficiency virus type 1 group M subtype B, UniProt P04585); test: biochemical; assay type: biochemical; conditions: for RNase H Activity IC50: WT RT, mean ± SD, at least three independent experiments
T2 construct: made in house
Protocol: as §1
Compounds were screened at a final concentration of 10 µM in 1× assay buffer (50 mM Tris pH 8.0, 60 mM KCl, 5 mM MgCl2) containing 1% DMSO in 384-well Greiner black polystyrene plates (VWR catalog # 82051-272). A total of 10 µL of intermediate diluted compounds (100 µM in 10% DMSO) was transferred into assay plates using the Evolution-3 (EP3) (Perkin Elmer, Waltham, MA, USA) automated liquid handling platform outfitted with a 384-well transfer head. A total of 40 µL of RT-RNase H enzyme (60 ng per well) were then dispensed into each well using the Titertek MAP-C2 reagent dispenser platform (Huntsville, AL, USA). A total of 50 µL of the RNA/DNA duplex (140 nM) substrate was then dispensed into each well using the MAP-C2 dispenser, and the assay plates were then incubated at room temperature for 20 min. After 20 min, the assay was terminated by the addition of 10 µL of 1 M EDTA pH 9.0 stop buffer. Relative fluorescent unit (RFU) signals, Excitation 490 nm and Emission 528 nm (Cutoff 515 nm), were captured on the Spectromax M5e plate reader (Molecular Devices, Menlo, CA, USA). […] The template also calculated the plate signal-to-background (S:B) ratios (mean maximum signal/mean minimum signal) and Z’-factor coefficient HTS performance statistics.
(§2) The following RNA/DNA T/P substrate was used in the present study: an 18-nucleotide RNA template (RNA-18T: 5′-[…]-3′) was annealed to an 18-nucleotide primer (DNA-18T: 5′-[…]-3′), as described previously. Fluorescein and IowaBlack FQTM were covalently attached to the 3′- and 5′-ter-mini of the RNA and DNA oligonucleotides, respectively.
(§3) The FRET-based RNase H cleavage assays were carried out as described previously. Fluorescence was measured with a SpectraMax M2 microplate spectrofluorometer (Molecular Devices, San Jose, CA, USA) using an excitation wavelength of 490 nm and an emission wavelength of 528 nm. Data were analyzed using SoftMax Pro software, version 4.7.1 (Molecular Devices, San Jose, CA, USA).
We implemented a rapid, robust and inexpensive fluorescence-based 384-well assay for the measurement of RT RNase H activity, previously described by Parniak et al.. The substrate comprises an 18-nucleotide 3′-fluorescein-labeled heteropolymeric RNA annealed to a complementary 5′-dabcyl-modified DNA. RT cleaves the RNA strand of this substrate close to the 3′ end, promoting the dissociation of the fluorescein-labeled RNA fragment and generating a detectable fluorescent signal. We used this HTS assay to screen 65,239 compounds at a final concentration of 10 µM.

[3] = target: T3, G190A HIV-1 RT RNase H activity (Human immunodeficiency virus type 1 group M subtype B, UniProt P04585, G777A); test: FRET-based RT RNase H cleavage assay, G190A RT; assay type: biochemical
T3 construct: made in house
Protocol: (§4) WT (wild-type) RT, and RTs harboring the NNRTI-resistant mutations K101E, K103N, Y181C, Y188C, G190A and P236L, were overexpressed and purified to homogeneity as described previously. The RT concentration was determined spectrophotometrically at 280 nm using an absorbance coefficient of 260,450 M^−1·cm^−1. The 7-hydroxy tropolone derivative 19,616 (2,7-dihydroxy 2,4,6-cyclo-heptatrien-1-one) was purchased from Molecular Diversity Preservation International (Basel, Switzerland). Nevirapine was purchased from Selleckchem (Houston, TX, USA). The benzisothiazolone derivatives were procured from MolPort (New York, NY, USA) or Enamine (Kyiv, Ukraine). The DNA and RNA oligonucleotides were synthesized and purified by Integrated DNA Technologies (Coralville, IA, USA). All other reagents were of the highest quality available and were used without further purification.
as §2, §3

[4] = system: G190A HIV-1 RT RNase H activity; test: FRET-based RT RNase H cleavage assay, G190A RT; assay type: biochemical; conditions: G190A RT; fold resistance IC50 mutant/IC50 WT
Protocol: as §4, §2, §3

[5] = system: Y181C HIV-1 RT RNase H activity; test: FRET-based RT RNase H cleavage assay, Y181C RT; assay type: biochemical; conditions: Y181C RT; fold resistance IC50 mutant/IC50 WT
Protocol: as §4, §2, §3

[6] = target: T4, Y181C HIV-1 RT RNase H activity (Human immunodeficiency virus type 1 group M subtype B, UniProt P04585, Y768C); test: FRET-based RT RNase H cleavage assay, Y181C RT; assay type: biochemical
T4 construct: made in house
Protocol: as §4, §2, §3

[7] = target: T5, P236L HIV-1 RT RNase H activity (Human immunodeficiency virus type 1 group M subtype B, UniProt P04585, P823L); test: FRET-based RT RNase H cleavage assay, P236L RT; assay type: biochemical
T5 construct: made in house
Protocol: as §4, §2, §3

[8] = system: P236L HIV-1 RT RNase H activity; test: FRET-based RT RNase H cleavage assay, P236L RT; assay type: biochemical; conditions: P236L RT; fold resistance IC50 mutant/IC50 WT
Protocol: as §4, §2, §3

[9] = target: T6, Y188C HIV-1 RT RNase H activity (Human immunodeficiency virus type 1 group M subtype B, UniProt P04585, Y775C); test: FRET-based RT RNase H cleavage assay, Y188C RT; assay type: biochemical
T6 construct: made in house
Protocol: as §4, §2, §3

[10] = system: Y188C HIV-1 RT RNase H activity; test: FRET-based RT RNase H cleavage assay, Y188C RT; assay type: biochemical; conditions: Y188C RT; fold resistance IC50 mutant/IC50 WT
Protocol: as §4, §2, §3

[11] = target: T7, K103N HIV-1 RT RNase H activity (Human immunodeficiency virus type 1 group M subtype B, UniProt P04585, K690N); test: FRET-based RT RNase H cleavage assay, K103N RT; assay type: biochemical
T7 construct: made in house
Protocol: as §4, §2, §3

[12] = system: K103N HIV-1 RT RNase H activity; test: FRET-based RT RNase H cleavage assay, K103N RT; assay type: biochemical; conditions: K103N RT; fold resistance IC50 mutant/IC50 WT
Protocol: as §4, §2, §3

[13] = system: K101E HIV-1 RT RNase H activity; test: FRET-based RT RNase H cleavage assay, K101E RT; assay type: biochemical; conditions: K101E RT; fold resistance IC50 mutant/IC50 WT
Protocol: as §4, §2, §3

[14] = target: T8, K101E HIV-1 RT RNase H activity (Human immunodeficiency virus type 1 group M subtype B, UniProt P04585, K688E); test: FRET-based RT RNase H cleavage assay, K101E RT; assay type: biochemical
T8 construct: made in house
Protocol: as §4, §2, §3

HIV-1 = test: Antiviral activity (HIV-1 replication) in TZM-bl cells; assay type: cell-based; conditions: Human immunodeficiency virus 1, mean ± SD
Protocol: The genes for Y181C, Y181I, Y181V and Y181F were cloned into HIV-1LAI. NNRTI susceptibility was determined in TZM-bl cells, as described previously.
(§5) Next, we re-purchased 10 hit compounds with IC50 values < 1.0 µM for the inhibition of RT RNase H activity that were commercially available in sufficient quantities for further analysis. We assessed their antiviral activity and cytotoxicity in TZM-bl cells, as described previously.

[15] = Cytotoxicity in TZM-bl cells; assay type: cell-based; conditions: human, TZM-bl cell death
Protocol: as §5

CC1CN(S(=O)(=O)c2cccc(-c3cn4ccccc4n3)c2)CC(C)O1 (stereo not drawn) [Compound 8]
IC50 [1]: > 81 µM | IC50 [2]: > 81 µM

O=c1c(O)ccccc1O [Compound 19619, 2,7-dihydroxy 2,4,6-cyclo-heptatrien-1-one, reference compound]
IC50 [3]: 7.1 ± 1.9 µM | Inhibition of RT RNase H Activity Fold-R [4]: 0.8 | Inhibition of RT RNase H Activity Fold-R [5]: 1.4 | IC50 [6]: 12.1 ± 1.6 µM | IC50 [7]: 8.9 ± 2.5 µM | Inhibition of RT RNase H Activity Fold-R [8]: 1.0 | IC50 [9]: 5.5 ± 2.4 µM | Inhibition of RT RNase H Activity Fold-R [10]: 0.6 | IC50 [2]: 8.7 ± 3 µM | IC50 [11]: 9.4 ± 0.9 µM | Inhibition of RT RNase H Activity Fold-R [12]: 1.1 | Inhibition of RT RNase H Activity Fold-R [13]: 0.9 | IC50 [14]: 8.1 ± 1.7 µM

O=S(=O)(c1cccc(-c2cn3cc(Cl)ccc3n2)c1)N1CCOCC1 [Compound 7]
IC50 [1]: > 81 µM | IC50 [2]: > 81 µM

O=c1c2ccccc2sn1-c1ccc(S(=O)(=O)N2CCCC2)cc1 [Compound 5]
IC50 [1]: 25 ± 25 µM | Polymerase Activity IC50 (DNA Polymerase) [1]: modest activity | IC50 [2]: 15.4 ± 9.2 µM | RNase H Activity IC50 [2]: modest activity

O=S(=O)(c1cccc(-c2nc3ccccc3s2)c1)N1CCCC1 [Compound 11]
IC50 [1]: 62 ± 38 µM | IC50 [2]: > 81 µM

Cc1ccc(-c2nc3ccccc3s2)cc1S(=O)(=O)N1CCOCC1 [Compound 9]
IC50 [1]: > 81 µM | IC50 [2]: > 81 µM

O=S(=O)(c1cc(-c2nc3ccccc3s2)ccc1Cl)N1CCOCC1 [Compound 10]
IC50 [1]: > 81 µM | IC50 [2]: > 81 µM

Cn1sc2ccccc2c1=O [Compound 3, 2-methylbenzo[d]isothiazol-3(2H)-one]
IC50 [3]: 2.4 ± 0.4 µM | Inhibition of RT RNase H Activity Fold-R [4]: 1.0 | Inhibition of RT RNase H Activity Fold-R [5]: 0.8 | IC50 [6]: 2.1 ± 0.3 µM | IC50 [7]: 2.2 ± 0.2 µM | Inhibition of RT RNase H Activity Fold-R [8]: 0.9 | IC50 [9]: 5.7 ± 1.2 µM | Inhibition of RT RNase H Activity Fold-R [10]: 2.3 | IC50 [1]: > 81 µM | Polymerase Activity IC50 (DNA Polymerase) [1]: completely inactive | IC50 [2]: 2.5 ± 0.2 µM | IC50 [11]: 2.4 ± 0.2 µM | Inhibition of RT RNase H Activity Fold-R [12]: 1.0 | EC50 (HIV-1): 28.4 ± 12.3 µM | CC50 [15]: ≥ 100 µM | Inhibition of RT RNase H Activity Fold-R [13]: 0.9 | IC50 [14]: 2.2 ± 0.3 µM

O=c1c2ccccc2sn1-c1ccc(S(=O)(=O)N2CCCCC2)cc1 [Compound 6]
IC50 [1]: 12.2 ± 3.7 µM | Polymerase Activity IC50 (DNA Polymerase) [1]: modest activity | IC50 [2]: 39.2 ± 21 µM | RNase H Activity IC50 [2]: modest activity
